# Source: US8063071B2 (GlaxoSmithKline, LLC, priority 2007, dated 2011)
# Where a name gives a salt, the structure may show the parent alone.
# How the values were obtained:
# [1] = biological target: T1, Recombinant human IKKβ (residues 1-737) (Homo sapiens, UniProt O14920); assay: IKK2 assay (TR-FRET); assay type: biochemical; conditions: ATP 1 μM final, read-out: pIC50 against IKK2 (converted)
# T1 construct: Recombinant human IKKβ (residues 1-737); GST (C); made in house
# T1 sequence (O14920 1-737): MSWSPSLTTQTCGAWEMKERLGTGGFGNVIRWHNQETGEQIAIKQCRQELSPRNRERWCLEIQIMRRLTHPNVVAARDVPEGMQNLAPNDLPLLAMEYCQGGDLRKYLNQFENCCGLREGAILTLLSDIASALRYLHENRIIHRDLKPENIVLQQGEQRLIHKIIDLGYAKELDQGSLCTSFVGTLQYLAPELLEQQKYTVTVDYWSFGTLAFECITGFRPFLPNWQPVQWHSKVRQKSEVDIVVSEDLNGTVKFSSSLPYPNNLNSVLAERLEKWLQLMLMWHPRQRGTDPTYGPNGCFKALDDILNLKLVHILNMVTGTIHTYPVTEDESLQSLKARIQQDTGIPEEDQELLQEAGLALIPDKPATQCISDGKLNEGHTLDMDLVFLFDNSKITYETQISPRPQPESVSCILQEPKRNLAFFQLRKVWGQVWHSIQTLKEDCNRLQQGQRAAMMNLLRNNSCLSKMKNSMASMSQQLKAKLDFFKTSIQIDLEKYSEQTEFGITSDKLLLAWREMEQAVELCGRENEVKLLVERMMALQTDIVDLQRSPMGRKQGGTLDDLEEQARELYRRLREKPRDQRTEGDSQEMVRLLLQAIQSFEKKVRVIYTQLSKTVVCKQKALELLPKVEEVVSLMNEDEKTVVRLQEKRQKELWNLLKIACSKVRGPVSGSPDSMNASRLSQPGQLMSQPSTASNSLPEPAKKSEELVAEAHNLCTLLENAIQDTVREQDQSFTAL
# Method in brief: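 Baculovirus-expressed C-terminal GST-tagged IKKβ (0.5-5 nM final) in HEPES pH 7.4, MgCl2, CHAPS, DTT, BSA with 1.7% DMSO; 25 nM GST-IB substrate and 1 μM ATP, 15 min at room temperature. EDTA stop; phospho-Ser32/36 detected by Eu-antibody/APC-anti-GST TR-FRET, 665/620 nm ratio.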
# [2] = tested on: human monocyte stimulated cytokine production (TNF-α); assay: Monocyte assay (LPS-stimulated TNF-α production); assay type: cell-based; conditions: 24 h, 200 ng/mL LPS, TNF-α by ELISA
# Method in brief: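 Human CD14+ monocytes were purified from blood and plated at 1×10^6 cells/mL in RPMI 1640 with 10% FBS. Compound was added 30 min before stimulation with 200 ng/mL LPS (0.1% DMSO final), followed by 24 hrs at 37 C. Supernatant TNF-α was measured by ELISA, and viability by trypan blue exclusion.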
SMILES,IC50 [1] [µM],IC50 [2] [µM]
"CCS(=O)(=O)N1CCC(c2c[nH]c3c(C(N)=O)cc(-c4cnn(CCNC(C)C)c4)cc23)CC1 [Example 259, 3-[1-(ethylsulfonyl)-4-piperidinyl]-5-(1-{2-[(1-methylethyl)amino]ethyl}-1H-pyrazol-4-yl)-1H-indole-7-carboxamide trifluoroacetate]",≤ 10,> 1
"CCS(=O)(=O)N1CCC(c2c[nH]c3c(C(N)=O)cc(-c4cnn(CCNCC(C)C)c4)cc23)CC1 [Example 260, 3-[1-(ethylsulfonyl)-4-piperidinyl]-5-(1-{2-[(2-methylpropyl)amino]ethyl}-1H-pyrazol-4-yl)-1H-indole-7-carboxamide trifluoroacetate]",≤ 10,> 1
"CCS(=O)(=O)N1CCC(c2c[nH]c3c(C(N)=O)cc(-c4cc(CNC)cc(CNC)c4)cc23)CC1 [Example 270, 5-{3,5-bis[(methylamino)methyl]phenyl}-3-[1-(ethylsulfonyl)-4-piperidinyl]-1H-indole-7-carboxamide trifluoroacetate]",≤ 10,> 1
"CCNCc1cc(-c2cc(C(N)=O)c3[nH]cc(C4CCN(S(=O)(=O)CC)CC4)c3c2)ccc1F [Example 271, 5-{3-[(ethylamino)methyl]-4-fluorophenyl}-3-[1-(ethylsulfonyl)-4-piperidinyl]-1H-indole-7-carboxamide trifluoroacetate]",≤ 10,≤ 1.5
"CCS(=O)(=O)N1CCC(c2c[nH]c3c(C(N)=O)cc(-c4ccc(F)c(CNC(CO)CO)c4)cc23)CC1 [Example 272, 3-[1-(ethylsulfonyl)-4-piperidinyl]-5-[4-fluoro-3-({[2-hydroxy-1-(hydroxymethyl)ethyl]amino}methyl)phenyl]-1H-indole-7-carboxamide trifluoroacetate (salt)]",≤ 10,> 1
"CCS(=O)(=O)N1CCC(c2c[nH]c3c(C(N)=O)cc(-c4ccc(F)c(CN[C@@H](C)CO)c4)cc23)CC1 [Example 273, 3-[1-(ethylsulfonyl)-4-piperidinyl]-5-[4-fluoro-3-({[(1S)-2-hydroxy-1-methylethyl]amino}methyl)phenyl]-1H-indole-7-carboxamide trifluoroacetate (salt)]",≤ 10,≤ 1.5
"CCS(=O)(=O)N1CCC(c2c[nH]c3c(C(N)=O)cc(-c4ccc(F)c(CNC5CC5)c4)cc23)CC1 [Example 274, 5-{3-[(cyclopropylamino)methyl]-4-fluorophenyl}-3-[1-(ethylsulfonyl)-4-piperidinyl]-1H-indole-7-carboxamide trifluoroacetate]",≤ 10,≤ 1.5
"CCS(=O)(=O)N1CCC(c2c[nH]c3c(C(N)=O)cc(-c4ccc(C5CNCCN5)s4)cc23)CC1 (stereo not shown) [Example 298, 3-[1-(ethylsulfonyl)-4-piperidinyl]-5-[5-(2-piperazinyl)-2-thienyl]-1H-indole-7-carboxamide trifluoroacetate]",≤ 10,≤ 1.5
"CCS(=O)(=O)N1CCC(c2c[nH]c3c(C(N)=O)cc(-c4ccc(C5CNCCN5)cc4)cc23)CC1 (stereo not shown) [Example 299, 3-[1-(ethylsulfonyl)-4-piperidinyl]-5-[4-(2-piperazinyl)phenyl]-1H-indole-7-carboxamide trifluoroacetate]",≤ 10,> 1

# More lines, now with the values ahead:
IC50 [1] [µM],IC50 [2] [µM],SMILES
≤ 10,> 1,"CCS(=O)(=O)N1CCC(c2c[nH]c3c(C(N)=O)cc(-c4ccc(OC)c(CN5CCCC5)c4)cc23)CC1 [Example 262, 3-[1-(ethylsulfonyl)-4-piperidinyl]-5-[4-(methyloxy)-3-(1-pyrrolidinylmethyl)phenyl]-1H-indole-7-carboxamide trifluoroacetate]"
≤ 10,≤ 1.5,"CCS(=O)(=O)N1CCC(c2c[nH]c3c(C(N)=O)cc(-c4ccc(F)c(CNC)c4)cc23)CC1 [Example 269, 3-[1-(ethylsulfonyl)-4-piperidinyl]-5-{4-fluoro-3-[(methylamino)methyl]phenyl}-1H-indole-7-carboxamide trifluoroacetate]"
≤ 10,≤ 1.5,"CCS(=O)(=O)N1CCC(c2c[nH]c3c(C(N)=O)cc(-c4ccc(F)c(CNC5CCC5)c4)cc23)CC1 [Example 275, 5-{3-[(cyclobutylamino)methyl]-4-fluorophenyl}-3-[1-(ethylsulfonyl)-4-piperidinyl]-1H-indole-7-carboxamide trifluoroacetate]"
≤ 10,≤ 1.5,"CCS(=O)(=O)N1CCC(c2c[nH]c3c(C(N)=O)cc(-c4cccc(CN5CCCC5)c4)cc23)CC1 [Example 276, 3-[1-(ethylsulfonyl)-4-piperidinyl]-5-[3-(1-pyrrolidinylmethyl)phenyl]-1H-indole-7-carboxamide trifluoroacetate]"
≤ 10,≤ 1.5,"CCS(=O)(=O)N1CCC(c2c[nH]c3c(C(N)=O)cc(-c4cccc(C(C)NC)c4)cc23)CC1 (stereo not shown) [Example 292, 3-[1-(ethylsulfonyl)-4-piperidinyl]-5-{3-[1-(methylamino)ethyl]phenyl}-1H-indole-7-carboxamide trifluoroacetate]"
≤ 10,≤ 1.5,"CCS(=O)(=O)N1CCC(c2c[nH]c3c(C(N)=O)cc(-c4cccc(C(C)NC(C)C)c4)cc23)CC1 (stereo not shown) [Example 293, 3-[1-(ethylsulfonyl)-4-piperidinyl]-5-(3-{1-[(1-methylethyl)amino]ethyl}phenyl)-1H-indole-7-carboxamide trifluoroacetate]"
≤ 10,≤ 1.5,"CCS(=O)(=O)N1CCC(c2c[nH]c3c(C(N)=O)cc(-c4cccc(C(C)NCC(C)C)c4)cc23)CC1 (stereo not shown) [Example 294, 3-[1-(ethylsulfonyl)-4-piperidinyl]-5-(3-{1-[(2-methylpropyl)amino]ethyl}phenyl)-1H-indole-7-carboxamide trifluoroacetate]"
≤ 10,≤ 1.5,"CCS(=O)(=O)N1CCC(c2c[nH]c3c(C(N)=O)cc(-c4cccc(C(C)NC5CCC5)c4)cc23)CC1 (stereo not shown) [Example 295, 5-{3-[1-(cyclobutylamino)ethyl]phenyl}-3-[1-(ethylsulfonyl)-4-piperidinyl]-1H-indole-7-carboxamide trifluoroacetate]"
≤ 10,≤ 1.5,"CCS(=O)(=O)N1CCC(c2c[nH]c3c(C(N)=O)cc(-c4cccc(C(C)N5CCCC5)c4)cc23)CC1 (stereo not shown) [Example 296, 3-[1-(ethylsulfonyl)-4-piperidinyl]-5-{3-[1-(1-pyrrolidinyl)ethyl]phenyl}-1H-indole-7-carboxamide trifluoroacetate]"
≤ 10,≤ 1.5,"CCS(=O)(=O)N1CCC(c2c[nH]c3c(C(N)=O)cc(-c4cccc(C5CSCCN5)c4)cc23)CC1 (stereo not shown) [Example 297, 3-[1-(ethylsulfonyl)-4-piperidinyl]-5-[3-(3-thiomorpholinyl)phenyl]-1H-indole-7-carboxamide trifluoroacetate]"
≤ 10,> 1,"CCS(=O)(=O)N1CCC(c2c[nH]c3c(C(N)=O)cc(-c4cccc(C5CNCCN5)c4)cc23)CC1 (stereo not shown) [Example 300, 3-[1-(ethylsulfonyl)-4-piperidinyl]-5-[3-(2-piperazinyl)phenyl]-1H-indole-7-carboxamide trifluoroacetate]"
